Among the data in PubChem BioAssay (NCI) are TGI and GI50 values, retold here.

Test systems include COLO 205 colon; HOP-62 NSCLC; HOP-92 NSCLC; HS 578T breast; IGROV1 ovarian; LOX IMVI melanoma; NCI/ADR-RES ovarian; SK-MEL-2 melanoma; MALME-3M melanoma; RXF 393 renal.
Common to all, as to test: DTP human tumour cell line panel, 48 h

Values joined by “and” are separate entries in the source; they are usually repeats but may differ in a detail not shown here. Equal entries are not always repeated.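 Tested at 5 concentrations; 48 h exposure; 96-well plates; endpoints linearly interpolated, else capped at highest concentration. At the GI50, growth is halved. TGI: concentration producing complete growth inhibition.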

For the compound `CN(C)c1ccc(/C=C2\N=C(c3ccccc3)N(c3ccc4c(c3)Sc3cc(N5C(=O)/C(=C/c6ccc(N(C)C)cc6)N=C5c5ccccc5)ccc3N4)C2=O)cc1`, the TGI was above 100 µM with COLO 205 colon; 32.1 µM in the experiment with HOP-62 NSCLC; 35.1 µM in the experiment on HOP-92 NSCLC; 72.7 µM in the experiment on HS 578T breast; 32 µM with IGROV1 ovarian; 40.9 µM with LOX IMVI melanoma. Besides, the TGI is 89.2 µM in the experiment with NCI/ADR-RES ovarian and 38.3 µM with SK-MEL-2 melanoma.

As for `CC1(C2CCC3(C)OC3C2)CO1` (configuration not stated), the TGI in the experiment with COLO 205 colon, in the experiment on HOP-62 NSCLC, with HOP-92 NSCLC, in the experiment with IGROV1 ovarian, in the experiment with LOX IMVI melanoma and in the experiment on MALME-3M melanoma was above 100 µM throughout. The TGI in the experiment on RXF 393 renal and in the experiment with SK-MEL-2 melanoma was above 100 µM throughout.

Regarding `CSc1ccc(/C=C2\N=C(c3ccccc3)N(/N=C/c3cc4cc(C)ccc4nc3Cl)C2=O)cc1`, the TGI was 39.4 µM in the experiment on COLO 205 colon; above 100 µM with HOP-62 NSCLC; 40.1 µM in the experiment with HOP-92 NSCLC; 65.9 µM in the experiment on HS 578T breast; 35 µM in the experiment on IGROV1 ovarian; 44.6 µM in the experiment with LOX IMVI melanoma. The TGI was found to be 78.1 µM in the experiment with NCI/ADR-RES ovarian and 43.7 µM in the experiment on SK-MEL-2 melanoma.

Consider `S=C(NCc1ccccc1)N/N=C/c1ccccn1`, for which the TGI is above 100 µM with COLO 205 colon; 71.5 µM with HOP-62 NSCLC; 52.7 µM in the experiment on HOP-92 NSCLC; above 100 µM in the experiment on HS 578T breast; above 62.8 µM in the experiment with IGROV1 ovarian; 21.5 µM in the experiment on LOX IMVI melanoma. Further, the TGI with MALME-3M melanoma was above 100 µM; with NCI/ADR-RES ovarian, 8.52 µM; in the experiment with SK-MEL-2 melanoma, above 100 µM.

Turning to `COC(=O)c1c(-c2ccc(Cl)cc2)cc2c3ccccc3n(C)c2c1C(=O)OC`, the TGI in the experiment on COLO 205 colon, with HOP-62 NSCLC, with HOP-92 NSCLC, in the experiment with HS 578T breast, in the experiment on IGROV1 ovarian and in the experiment on LOX IMVI melanoma was above 100 µM each time. For the same compound, the TGI in the experiment on MALME-3M melanoma, in the experiment on NCI/ADR-RES ovarian and in the experiment with SK-MEL-2 melanoma was above 100 µM in each case.

For `Cc1cc2cc3c(cc2c(-c2ccc(N)cc2)n1)OCO3`, the TGI in the experiment on COLO 205 colon is 88.5 µM; in the experiment with HOP-62 NSCLC it was above 100 µM; in the experiment on HOP-92 NSCLC it was 75.4 µM; in the experiment on HS 578T breast, above 100 µM; in the experiment on IGROV1 ovarian, 59.5 µM; in the experiment with MALME-3M melanoma it was above 100 µM. Moreover, the TGI in the experiment with NCI/ADR-RES ovarian and with SK-MEL-2 melanoma was above 100 µM in each case.

In the case of `O=C1C=CC(=O)c2c(O)c(N3CCN(CCOCCO)CC3)c(Cl)c(O)c21`, the GI50 with COLO 205 colon is 156 nM [middle of 4 runs]; in the experiment with HOP-62 NSCLC, 2.07 µM and 0.983 µM and 2.64 µM; with HS 578T breast, 0.218 µM; in the experiment with IGROV1 ovarian, 1.64 µM [middle of 4 runs]; with RXF 393 renal it was 0.192 µM and 0.344 µM and 1.35 µM; in the experiment on SK-MEL-2 melanoma, 2.3 µM. Also, the concentration for total growth inhibition (TGI) with HOP-62 NSCLC was 3.84 µM and 3.6 µM and 6.67 µM; with HOP-92 NSCLC, 0.45 µM and 0.493 µM and 1.12 µM; with IGROV1 ovarian, 3.2 µM [middle of 4 runs]; in the experiment with RXF 393 renal, 0.422 µM and 1.1 µM and 2.96 µM; in the experiment on SK-MEL-2 melanoma it was 4.51 µM and 1.11 µM.

Regarding `CCN(CC)CCN(C(=O)C(C)(C)C)c1ccccc1N`, the total growth inhibition concentration (TGI) in the experiment with HOP-62 NSCLC, with HOP-92 NSCLC, in the experiment with IGROV1 ovarian, in the experiment on MALME-3M melanoma, in the experiment on NCI/ADR-RES ovarian and in the experiment with RXF 393 renal was above 100 µM throughout.

For the compound `Cn1c2ccccc2n2c3ncccc3c(=S)c(C#N)c12`, the concentration for total growth inhibition (TGI) in the experiment on COLO 205 colon, with HOP-62 NSCLC, in the experiment on HS 578T breast, with IGROV1 ovarian, in the experiment with LOX IMVI melanoma and with MALME-3M melanoma was above 100 µM in each case. Besides, the total growth inhibition concentration (TGI) in the experiment with NCI/ADR-RES ovarian, with RXF 393 renal and in the experiment on SK-MEL-2 melanoma was above 100 µM in each case.

As for `O=C1c2ccccc2-c2[nH]c3cn[nH]c(=O)c3c21`, the concentration for total growth inhibition (TGI) with COLO 205 colon, in the experiment with HOP-62 NSCLC, with HOP-92 NSCLC, in the experiment on HS 578T breast, with IGROV1 ovarian and with LOX IMVI melanoma was above 100 µM in each case. For the same compound, the total growth inhibition concentration (TGI) in the experiment on MALME-3M melanoma, in the experiment with NCI/ADR-RES ovarian and in the experiment on SK-MEL-2 melanoma was above 100 µM throughout.

For `C/C(=N\Nc1nc2ccccc2[nH]1)c1cc2ccccc2cn1`, the concentration for total growth inhibition (TGI) was 0.819 µM in the experiment with HOP-92 NSCLC; 1.74 µM in the experiment with HS 578T breast; 1.13 µM in the experiment on IGROV1 ovarian; 1.48 µM in the experiment with LOX IMVI melanoma; 0.664 µM in the experiment on MALME-3M melanoma; 1.16 µM in the experiment with NCI/ADR-RES ovarian.

`O=C1c2ccccc2C(=O)N1c1nc(-c2ccc(Cl)cc2)cc(N2N=C(c3ccc(Br)cc3)CC2c2ccccc2)n1` (configuration not stated): the TGI in the experiment on COLO 205 colon was 4.84 µM; in the experiment with HOP-62 NSCLC, above 23 µM; in the experiment on HOP-92 NSCLC, 82.3 µM; with HS 578T breast, 20.8 µM; in the experiment on IGROV1 ovarian, above 32.6 µM; in the experiment on LOX IMVI melanoma, 3.78 µM. Also, the total growth inhibition concentration (TGI) in the experiment on MALME-3M melanoma was above 60.6 µM; in the experiment with NCI/ADR-RES ovarian, 6.05 µM; in the experiment with SK-MEL-2 melanoma, above 42.2 µM.

Take `CSc1nc(NC(C)C)c2c(n1)Sc1nc3ccccc3n1C2O` (configuration not stated): the TGI in the experiment on COLO 205 colon was 14.3 µM; with HOP-62 NSCLC it was above 100 µM; with HOP-92 NSCLC it was above 100 µM; with HS 578T breast it was 13.4 µM; with IGROV1 ovarian, above 100 µM; in the experiment with LOX IMVI melanoma, above 100 µM. Further, the results for the TGI with MALME-3M melanoma, with RXF 393 renal and in the experiment on SK-MEL-2 melanoma were 49.6 µM, 30.4 µM and 52 µM, respectively.

For the compound `COC(=O)C1=C(O)C(C(=O)OC)[C@]2(O)[C@H](C(=O)OC)[C@H]1C[C@@H](c1ccc([N+](=O)[O-])cc1)[C@H]2C(=O)OC` (some centres not stated), the TGI in the experiment with COLO 205 colon was 65.2 µM; with HOP-62 NSCLC it was above 100 µM; with IGROV1 ovarian it was 30.5 µM; with LOX IMVI melanoma it was 32 µM; in the experiment with MALME-3M melanoma, 17.5 µM; in the experiment with NCI/ADR-RES ovarian, 51.8 µM. The results for the total growth inhibition concentration (TGI) with RXF 393 renal and with SK-MEL-2 melanoma were 32.4 µM and 46.6 µM, respectively.
